Test system: 843782-103-R-J1-PDC complex spheroid viability
Experiment: Anticancer human tumor 843782-103-R-J1-PDC patient-derived lung adenocarcinoma cell line growth inhibition [RAS]
Details: for IC50: curve of first compound; for viability, T/C: stronger effect = lower value; active = viability on the fitted dose curve at most 10% of control; inactive = the rest
In short: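 Tumour cells grown as complex spheroids with HUVEC endothelial cells and mesenchymal stem cells, treated with RAS pathway inhibitor combinations. Each agent spans half-log steps from near clinical Cmax, or 10 microM where Cmax is unknown.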

[1] = second compound 0.000949 µM, first compound 0.0316 µM
[2] = second compound 0.000949 µM, first compound 0.1 µM
[3] = second compound 0.000949 µM, first compound 0.316 µM
[4] = second compound 0.000949 µM, first compound 1 µM
[5] = second compound 0.000949 µM, first compound 3.16 µM
[6] = second compound 0.000949 µM, first compound 10 µM
[7] = second compound 0.003 µM, first compound 0.0316 µM
[8] = second compound 0.003 µM, first compound 0.1 µM
[9] = second compound 0.003 µM, first compound 0.316 µM
[10] = second compound 0.003 µM, first compound 1 µM
[11] = second compound 0.003 µM, first compound 3.16 µM
[12] = second compound 0.003 µM, first compound 10 µM
[13] = second compound 0.00949 µM, first compound 0.0316 µM
[14] = second compound 0.00949 µM, first compound 0.1 µM
[15] = second compound 0.00949 µM, first compound 0.316 µM
[16] = second compound 0.00949 µM, first compound 1 µM
[17] = second compound 0.00949 µM, first compound 3.16 µM
[18] = second compound 0.00949 µM, first compound 10 µM
[19] = second compound 0.03 µM, first compound 0.0316 µM
[20] = second compound 0.03 µM, first compound 0.1 µM
[21] = second compound 0.03 µM, first compound 0.316 µM
[22] = second compound 0.03 µM, first compound 1 µM
[23] = second compound 0.03 µM, first compound 3.16 µM
[24] = second compound 0.03 µM, first compound 10 µM
[25] = second compound 0.0949 µM, first compound 0.0316 µM
[26] = second compound 0.0949 µM, first compound 0.1 µM
[27] = second compound 0.0949 µM, first compound 0.316 µM
[28] = second compound 0.0949 µM, first compound 1 µM
[29] = second compound 0.0949 µM, first compound 3.16 µM
[30] = second compound 0.0949 µM, first compound 10 µM
[31] = second compound 0.3 µM, first compound 0.0316 µM
[32] = second compound 0.3 µM, first compound 0.1 µM
[33] = second compound 0.3 µM, first compound 0.316 µM
[34] = second compound 0.3 µM, first compound 1 µM
[35] = second compound 0.3 µM, first compound 3.16 µM
[36] = second compound 0.3 µM, first compound 10 µM
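Also: viability read after seven days of compound exposure.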

CC1(O)CCCC1n1c(=O)c(C(F)F)cc2cnc(NC3CCN(S(C)(=O)=O)CC3)nc21 (stereo not given) + CCn1c(-c2cc(N3CCN(C)CC3)cnc2C(C)OC)c2c3cc(ccc31)-c1csc(n1)CC(NC(=O)C1CC1C)C(=O)N1CCCC(N1)C(=O)OCC(C)(C)C2
123 nM: IC50 (second compound 0.000949 µM)
inactive: viability, T/C [1] 68.6% | viability, T/C [2] 57% | viability, T/C [3] 18.5% | viability, T/C [7] 58.1% | viability, T/C [8] 42.5% | viability, T/C [9] 16.6% | viability, T/C [10] 17.5% | viability, T/C [13] 37.4% | viability, T/C [14] 24.2% | viability, T/C [15] 14.6% | viability, T/C [16] 15.8% | viability, T/C [19] 18.4% | viability, T/C [20] 15.7% | viability, T/C [21] 13% | viability, T/C [22] 12.7% | viability, T/C [25] 15.8% | viability, T/C [26] 13.8% | viability, T/C [27] 10.8% | viability, T/C [28] 11.4% | viability, T/C [31] 14.1% | viability, T/C [32] 13.6% | viability, T/C [33] 9.45%
52.7 nM: IC50 (second compound 0.003 µM)
active: viability, T/C [4] 14.9% | viability, T/C [5] 11.1% | viability, T/C [6] 2.8% | viability, T/C [11] 13.2% | viability, T/C [12] 2.6% | viability, T/C [17] 13.1% | viability, T/C [18] 3.41% | viability, T/C [23] 13.5% | viability, T/C [24] 2.9% | viability, T/C [29] 12% | viability, T/C [30] 3.5% | viability, T/C [34] 10% | viability, T/C [35] 9.83% | viability, T/C [36] 3.16%
< 31.6 nM: IC50 (second compound 0.00949 µM) | IC50 (second compound 0.03 µM) | IC50 (second compound 0.0949 µM) | IC50 (second compound 0.3 µM)

CCC(CC)c1cc(NC2CCC(N)C2)n2nccc2n1 (stereo not given) + CCn1c(-c2cc(N3CCN(C)CC3)cnc2C(C)OC)c2c3cc(ccc31)-c1csc(n1)CC(NC(=O)C1CC1C)C(=O)N1CCCC(N1)C(=O)OCC(C)(C)C2
591 nM: IC50 (second compound 0.000949 µM)
406 nM: IC50 (second compound 0.003 µM)
active: viability, T/C [5] 0.47% | viability, T/C [6] 0.37% | viability, T/C [11] 0.26% | viability, T/C [12] 0.35% | viability, T/C [17] 0.17% | viability, T/C [18] 0.29% | viability, T/C [23] 0.09% | viability, T/C [24] 0.27% | viability, T/C [28] 14.7% | viability, T/C [29] 0.52% | viability, T/C [30] 0.34% | viability, T/C [34] 13.4% | viability, T/C [35] 0.25% | viability, T/C [36] 0.53%
inactive: viability, T/C [1] 75.2% | viability, T/C [2] 76.5% | viability, T/C [3] 72.7% | viability, T/C [4] 30.7% | viability, T/C [7] 53.5% | viability, T/C [8] 53.9% | viability, T/C [9] 58.1% | viability, T/C [10] 31.4% | viability, T/C [13] 30.6% | viability, T/C [14] 34.3% | viability, T/C [15] 36.8% | viability, T/C [16] 17.1% | viability, T/C [19] 21.9% | viability, T/C [20] 19% | viability, T/C [21] 21.2% | viability, T/C [22] 15.5% | viability, T/C [25] 15.7% | viability, T/C [26] 15% | viability, T/C [27] 16.8% | viability, T/C [31] 15% | viability, T/C [32] 14.2% | viability, T/C [33] 14.8%
< 31.6 nM: IC50 (second compound 0.00949 µM) | IC50 (second compound 0.03 µM) | IC50 (second compound 0.0949 µM) | IC50 (second compound 0.3 µM)

CCN1CCN(Cc2ccc(Nc3ncc(F)c(-c4cc(F)c5nc(C)n(C(C)C)c5c4)n3)nc2)CC1 + CCn1c(-c2cc(N3CCN(C)CC3)cnc2C(C)OC)c2c3cc(ccc31)-c1csc(n1)CC(NC(=O)C1CC1C)C(=O)N1CCCC(N1)C(=O)OCC(C)(C)C2
122 nM: IC50 (second compound 0.003 µM)
inactive: viability, T/C (second compound 0.000949 µM, first compound 0.00316 µM) 79.5% | viability, T/C (second compound 0.000949 µM, first compound 0.01 µM) 83.1% | viability, T/C [1] 78.2% | viability, T/C [2] 73% | viability, T/C [3] 63.4% | viability, T/C [4] 34.5% | viability, T/C (second compound 0.003 µM, first compound 0.00316 µM) 64% | viability, T/C (second compound 0.003 µM, first compound 0.01 µM) 66.3% | viability, T/C [7] 57.1% | viability, T/C [8] 52.2% | viability, T/C [9] 41.8% | viability, T/C [10] 29.9% | viability, T/C (second compound 0.00949 µM, first compound 0.00316 µM) 45.9% | viability, T/C (second compound 0.00949 µM, first compound 0.01 µM) 42.9% | viability, T/C [13] 34.4% | viability, T/C [14] 31.1% | viability, T/C [15] 30.1% | viability, T/C [16] 20.8% | viability, T/C (second compound 0.03 µM, first compound 0.00316 µM) 24.5% | viability, T/C (second compound 0.03 µM, first compound 0.01 µM) 22.6% | viability, T/C [19] 21% | viability, T/C [20] 20% | viability, T/C [21] 18.2% | viability, T/C [22] 17% | viability, T/C (second compound 0.0949 µM, first compound 0.00316 µM) 17.9% | viability, T/C (second compound 0.0949 µM, first compound 0.01 µM) 16.1% | viability, T/C [25] 15.8% | viability, T/C [26] 15.2% | viability, T/C [27] 16.1% | viability, T/C [28] 14.2% | viability, T/C (second compound 0.3 µM, first compound 0.00316 µM) 17.1% | viability, T/C (second compound 0.3 µM, first compound 0.01 µM) 12.4% | viability, T/C [31] 14% | viability, T/C [32] 12.3% | viability, T/C [33] 13.9% | viability, T/C [34] 12.3%
531 nM: IC50 (second compound 0.000949 µM)
< 3.16 nM: IC50 (second compound 0.00949 µM) | IC50 (second compound 0.03 µM) | IC50 (second compound 0.0949 µM) | IC50 (second compound 0.3 µM)

Cc1nc(N2CCC3(CC2)COC(C)C3N)c(CO)nc1Sc1ccnc(N)c1Cl (stereo not given) + CCn1c(-c2cc(N3CCN(C)CC3)cnc2C(C)OC)c2c3cc(ccc31)-c1csc(n1)CC(NC(=O)C1CC1C)C(=O)N1CCCC(N1)C(=O)OCC(C)(C)C2
inactive: viability, T/C [1] 54.4% | viability, T/C [2] 42% | viability, T/C [3] 40.2% | viability, T/C [4] 23.5% | viability, T/C [5] 19.4% | viability, T/C [6] 19.2% | viability, T/C [7] 50% | viability, T/C [8] 39.2% | viability, T/C [9] 29.5% | viability, T/C [10] 22.1% | viability, T/C [11] 19.4% | viability, T/C [12] 13.4% | viability, T/C [13] 26.4% | viability, T/C [14] 25.6% | viability, T/C [15] 20% | viability, T/C [16] 19.6% | viability, T/C [17] 15.9% | viability, T/C [18] 15.1% | viability, T/C [19] 18.6% | viability, T/C [20] 17.8% | viability, T/C [21] 16.4% | viability, T/C [22] 15.5% | viability, T/C [23] 15.5% | viability, T/C [24] 14.1% | viability, T/C [25] 17.4% | viability, T/C [26] 13.6% | viability, T/C [27] 13.3% | viability, T/C [28] 13% | viability, T/C [29] 13.5% | viability, T/C [30] 12.2% | viability, T/C [31] 13.7% | viability, T/C [32] 15.5% | viability, T/C [33] 15.1% | viability, T/C [34] 15.4% | viability, T/C [35] 14% | viability, T/C [36] 12.4%
< 31.6 nM: IC50 (second compound 0.00949 µM) | IC50 (second compound 0.03 µM) | IC50 (second compound 0.0949 µM) | IC50 (second compound 0.3 µM)
51.5 nM: IC50 (second compound 0.000949 µM)
31.8 nM: IC50 (second compound 0.003 µM)

NC1c2ccccc2OC12CCN(c1cnc3c(N4CCCc5ncccc54)n[nH]c3n1)CC2 (stereo not given) + CCn1c(-c2cc(N3CCN(C)CC3)cnc2C(C)OC)c2c3cc(ccc31)-c1csc(n1)CC(NC(=O)C1CC1C)C(=O)N1CCCC(N1)C(=O)OCC(C)(C)C2
< 31.6 nM: IC50 (second compound 0.000949 µM) | IC50 (second compound 0.003 µM) | IC50 (second compound 0.00949 µM) | IC50 (second compound 0.03 µM) | IC50 (second compound 0.0949 µM) | IC50 (second compound 0.3 µM)
inactive: viability, T/C [1] 39.3% | viability, T/C [2] 25.7% | viability, T/C [3] 20% | viability, T/C [4] 19.5% | viability, T/C [5] 16.9% | viability, T/C [6] 12.2% | viability, T/C [7] 27.1% | viability, T/C [8] 19.2% | viability, T/C [9] 17.9% | viability, T/C [10] 16.2% | viability, T/C [11] 13.6% | viability, T/C [12] 10.3% | viability, T/C [13] 24.2% | viability, T/C [14] 15.6% | viability, T/C [15] 17% | viability, T/C [16] 15% | viability, T/C [17] 12.8% | viability, T/C [18] 8.86% | viability, T/C [19] 16.8% | viability, T/C [20] 14.8% | viability, T/C [21] 12.6% | viability, T/C [22] 12.7% | viability, T/C [23] 14.2% | viability, T/C [24] 9.33% | viability, T/C [25] 18.1% | viability, T/C [26] 14% | viability, T/C [27] 15.2% | viability, T/C [28] 13.8% | viability, T/C [29] 12.2% | viability, T/C [30] 9.38% | viability, T/C [31] 13.6% | viability, T/C [32] 13.6% | viability, T/C [33] 13.6% | viability, T/C [34] 12.8% | viability, T/C [35] 11.7% | viability, T/C [36] 7.8%

From PubChem BioAssay AID2060883 (Molecular Pharmacology Branch, DTP, NCI, 2025)
